This is an account of results in patent US5039689A, “Antiparasitic 3(4-amino benzotriazo-1-yl-)1,2-cyclopentanediols” (Burroughs Wellcome Co., priority 1988, dated 1991).

Series [1] concerns Trypanosoma brucei gambiense. Put plainly: Activity against Trypanosoma brucei gambiense (procyclic culture, 5 days, density by Coulter Counter). Format: cell-based, T. brucei subsp. gambiense procyclic (strain TH114). The conditions noted are these: 120 h, T. brucei gambiense procyclic TH114, medium PDM-79, 27° C., read-out: I50. The protocol: A) Activity against Trypanosoma brucei gambiense 1. T. brucei subsp. gambiense procyclic (strain TH114 from the Institut fur Schiffs und Tropenkrankheiten, Hamburg) were grown in medium PDM-79 (Fish et al; BBA714[1982]422-428) in 25 cm^2 tissue (T-25) culture flasks at 27° C. in a 5% CO^2 /air atmosphere. Drugs were dissolved in 0.1N NaOH and their concentration determined from their spectral data. Drugs were added to the PDM-79 at a volume≤1% of the total volume and the drug containing medium filter-sterilised into T-25 flasks. Flasks were inoculated to a final density of ≈10^5 /ml and incubated for 5 days at which time their density was determined by a Coulter Counter (Model ZB1). Results were expressed as % inhibition relative to the controls.

Another series deals with Pneumocystis carinii. Kind of series: Activity against Pneumocystis carinii (method of Pesanti). Format: cell-based. The conditions noted are these: read-out: I50. The procedure: (B) Activity against Pneumocystis carinii
The compounds were tested according to the method of Pesanti, (J. Infect. Dis., 141(6), 775-780, 1980).

Series [2] in a line: Oral toxicology test in rats. Format: in vivo. The conditions noted are these: Charles River CD rats, 4 mg/kg for 30 days. The protocol: Charles River CD rats were given oral doses of the compound of Example 3 at 4 mg/kg for 30 days.

With `Nc1ncnc2c1ncn2[C@@H]1CC[C@@H](O)[C@H]1O` (relative stereo) [Example 1C, (±)-(1R*,2S*,3R*)-3-(6-Amino-9H-purin-9-yl)-1,2-cyclopentanediol], the IC50 in series [1] came out at 0.7 nM.

For the molecule `Nc1ncnc2c1nnn2[C@@H]1CC[C@@H](O)[C@H]1O` (relative stereo) [Example 3C, (±)-(1R*,2S*,3R*)-3-(7-Amino-3H-1,2,3-triazolo[4,5-d]pyrimidin-3-yl)-1,2-cyclopentanediol], the values for the IC50 (in the series with Pneumocystis carinii; in series [1]) were less than 20000 nM and 200 nM, respectively. In addition, the “treatment-related changes with respect to clinical signs of toxicity, body weight, clinical pathology or pathology” value in series [2] is “No treatment-related changes were observed”.

Turning to `Nc1ncnc2c1ncn2[C@@H]1C[C@H](CCl)[C@@H](O)[C@H]1O` (relative stereo) [Example 4, (±)-(1R*,2S*,3R*,5S*)-3-(6-Amino-9H-purin-9-yl)-5-(chloromethyl)-1,2-cyclopentanediol], in series [1], the IC50 was 3500 nM.

On to `Nc1ncnc2c1ncn2[C@H]1CC[C@@H](O)[C@H]1O` (relative stereo) [Example 2, (±)-(1R*,2S*,3S*)-3-(6-Amino-9H-purin-9-yl)-1,2-cyclopentanediol], for which the IC50 with Pneumocystis carinii is less than 20000 nM; in series [1] it was 1000 nM.

As for `NC(=O)[C@@H]1C[C@H](n2cnc3c(N)ncnc32)[C@@H](O)[C@H]1O` (relative stereo) [Example 6, (±)-(1R*,2S*,3R*,4S*)-4-(6-Amino-9H-purin-9-yl)-2,3-dihydroxy-1-cyclopentanecarboxamide], in series [1], the IC50 lay within 40 to 200 nM.

Take `C[C@H]1C[C@@H](n2cnc3c(N)ncnc32)[C@H](O)[C@@H]1O` (relative stereo) [Example 5, (±)-(1R*,2S*,3R*,5S*)-3-(6-Amino-9H-purin-9-yl)-5-methyl-1,2-cyclopentanediol]: the IC50 in series [1] was 2 nM.
